Experimental findings from PubChem BioAssay (NCI) are described below.

“And” between values parts separate entries of the source, which are not always exact repeats. Identical values can stand only once.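 The compound was tested at five concentrations on cells cultured in 96-well plates, with a 48-hour exposure period. Abbreviation: GI50, concentration required for 50% inhibition of growth. The concentration for full growth arrest is given as TGI.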

This assay has as its system MDA-MB-468 breast. Kind of assay: growth of human tumour cells (NCI), 48 h.

In the case of `CN(C)CC(C(=O)Cc1ccccc1)c1ccccc1` (stereo not given), the GI50 was 494 nM and the TGI stood at 2050 nM.
On the same counts, the results for `Cc1nc(N)sc1-c1csc(Nc2ccc(C(F)(F)F)cc2)n1` are 2250 nM and 8770 nM.
On the same counts, the results for `CCCCC(=O)N/N=C/c1c(O)ccc2ccccc12` are 999 nM and 11700 nM.
Taken in the same sequence, the figures for `COc1cc2ncnc(Nc3ccc4c(cnn4Cc4ccccc4)c3)c2cc1OC` were 59.6 nM and 584 nM.
For `COc1cc(C2C3=C(COC3=O)Nc3c2ccc2c3CCCC2)cc2c1OCO2` (stereo not given), the GI50 is 28.7 nM and the TGI was 98.6 nM.
On the same counts, the results for `Nc1nc(N)c2c(n1)NC(c1ccccc1)C1CCc3ccccc3C1=N2` (stereo not given) are 473 nM and 3250 nM.
As for `CN1CCN(Cc2ccc(NC(=O)c3cncc(C#Cc4cncc5nccnc45)c3)cc2C(F)(F)F)CC1`, the GI50 was 7060 nM and the TGI was 15900 nM.
Taken in the same sequence, the figures for `COc1cc(N2CCN(C(C)C)CC2)ccc1Nc1nc(Nc2cccc(F)c2C(=O)O)c2cc[nH]c2n1` were > 25000 nM and > 25000 nM.
Taken in the same sequence, the figures for `O=C1Nc2ccccc2/C1=C\c1nc(C2CCN(S(=O)(=O)c3ccc(F)cc3)CC2)n2ccccc12` were 3920 nM and > 100000 nM.
Taken in the same sequence, the figures for `COCCN1CCN(Cc2ccc(-c3n[nH]c4c3C(=O)c3c(NC(=O)NN5CCOCC5)cccc3-4)cc2)CC1` were 19.8 nM and 66.9 nM.
In the case of `C#C[C@]1(O)CC[C@H]2[C@@H]3CC=C4c5sc(Nc6cc(OC)ccc6OC)nc5CC[C@]4(C)[C@H]3CC[C@@]21C`, the GI50 was 1530 nM and the TGI is 3960 nM.
For `Cc1ccc(C2=Nc3c(N)ncnc3NC(c3ccc4c(c3)OCO4)C2)cc1` (stereo not given), the GI50 was 3680 nM and the TGI is > 100000 nM.
On the same counts, the results for `COC(=O)/C=C1/SC(N2N=C(c3cccs3)CC2c2ccc(F)cc2)=NC1=O` (stereo not given) are 1940 nM and 4370 nM.
Taken in the same sequence, the figures for `COc1ccc(Cn2cc3c(c2-c2cc(OC)c(OC)c(OC)c2)CCc2c(CN4CCOCC4)noc2-3)cc1` were 453 nM and > 100000 nM.
Regarding `C[C@]1(Cn2ccnn2)C(C(=O)O)N2C(=O)CC2S1(=O)=O` (stereo not given in full), the GI50 was > 100000 nM and the TGI is > 100000 nM.
On to `Cc1[nH]c(-c2nc3ccccc3[nH]2)c(C)c1C(=O)NC(C)C1CCCCC1` (stereo not given), for which the GI50 was 6820 nM and the TGI was 28300 nM.
On the same counts, the results for `OCCNCCCOc1ccc2ncnc(Nc3ccc(Oc4cccc(C(F)(F)F)c4)c(Cl)c3)c2c1` are 626 nM and 2210 nM.
On the same counts, the results for `CCCNC(=O)c1ccc(Cl)cc1Cl` are > 100000 nM and > 100000 nM.
On the same counts, the results for `CCC(=O)Nc1ccccc1C#C/C=C\C#Cc1ccccc1C(F)(F)F` are 1980 nM and > 14000 nM.
As for `COc1ccc2c(Cl)cc(NC(=O)Nc3c(C)cccc3C)nc2c1`, the GI50 was 84800 nM and the TGI is > 100000 nM.
Regarding `Cn1c2ccccc2c2c3[nH][nH]c(=O)c3c3c4ccccc4[nH]c3c21`, the GI50 was 2280 nM and the TGI stood at 9190 nM.
On the same counts, the results for `O=[n+]1c2ccccc2n([O-])c2cc(Cl)ccc21` are 1240 nM and 4960 nM.
For the compound `CC(C)n1nc(-c2ccc3oc(N)nc3c2)c2c(N)ncnc21`, the GI50 was < 10 nM and 10.1 nM; the TGI was 64.9 nM and 63.3 nM.
`N#Cc1c(N)nc(N)nc1N[C@H](c1nc2c(F)ccc(Cl)c2c(=O)n1-c1cccnc1)C1CC1`: the GI50 was 2040 nM and the TGI was found to be 13900 nM.
On the same counts, the results for `COc1cc(-c2n/c(=C\c3c(O)[nH]c4cc(Cl)ccc34)cc3c2=Nc2ccccc2-3)cc(OC)c1OC` are 3340 nM and 20900 nM.
Taken in the same sequence, the figures for `CCN(CC)CCN(Cc1ccc(F)cc1)c1ccc(CO)c(Cl)c1` were 430 nM and 1750 nM.
Taken in the same sequence, the figures for `C[n+]1c(-c2ccc(/C=N/NC(=O)c3ccc(C(=O)N/N=C/c4ccc(-c5cn6ccccc6[n+]5C)cc4)cc3)cc2)cn2ccccc21` were 114000 nM and 326000 nM.
In the case of `Cc1ccc(C(SCC(N)C(=O)O)(c2ccccc2)c2ccccc2)cc1` (stereo not given), the GI50 was 45.3 nM and the TGI is > 49500 nM.
Taken in the same sequence, the figures for `CN1CCN(c2nc(NCCCNc3ccnc4cc(Cl)ccc34)c3ccccc3n2)CC1` were 2140 nM and 6140 nM.
Taken in the same sequence, the figures for `COc1cc(-c2cc(/C=C/C(=O)c3ccc(Cl)c(Cl)c3)[nH]n2)cc(OC)c1OC` were 1980 nM and 7220 nM.
Taken in the same sequence, the figures for `COc1ccc2c(c1)CCCN2S(=O)(=O)c1ccccc1[N+](=O)[O-]` were 25700 nM and 95100 nM.
`c1cncc(C2Nc3cccc4cccc(c34)N2)c1`: the GI50 was 2930 nM and the TGI was found to be 16700 nM.
On the same counts, the results for `CCCCc1n(Cc2ccc3ccccc3c2)cc[n+]1Cc1ccc2ccccc2c1` are 297 nM and 1130 nM.
On the same counts, the results for `C[C@]12CC[C@H]3[C@@H](C[C@@H]4SC(Nc5ccccc5)=N[C@@]45CC(O)CC[C@]35C)[C@@H]1CCC2O` (stereo not given in full) are 1720 nM and 3380 nM.
Taken in the same sequence, the figures for `N=C(N)c1ccc(-c2ccc(-c3cccs3)s2)s1` were 217 nM and 651 nM.
Consider `COc1ccc(/C=C2\CN(Cc3cn(CCNc4ccnc5cc(Cl)ccc45)nn3)C/C(=C\c3ccc(OC)c(OC)c3)C2=O)cc1OC`, for which the GI50 was 1510 nM and the TGI was 4410 nM.
As to `Cc1cc(C(=O)NC(CCC(=O)O)C(=O)O)sc1CCC1CNc2nc(N)[nH]c(=O)c2C1` (stereo not given), the GI50 is 58.4 nM and 83.8 nM; the TGI is > 100000 nM.
As for `Cc1cc(C(=O)O)c(C)n1-c1cccc(C(=O)O)c1`, the GI50 is > 100000 nM and the TGI was > 100000 nM.
For the compound `CCCCNC(=O)c1cc(NCc2cc(O)ccc2O)ccc1O`, the GI50 was 12300 nM and the TGI stood at 33900 nM.
Taken in the same sequence, the figures for `Cc1cc2nc3cc(C)c(N)cc3[n+](-c3ccccc3)c2cc1N` were 79.8 nM and 1120 nM.
On the same counts, the results for `CCc1cc2ncc(CN3CCN(c4ccc(C(=O)NC)nc4)CC3)cc2[nH]c1=O` are 13300 nM and > 100000 nM.
Taken in the same sequence, the figures for `O=C1C(=O)c2ccccc2C(O)=C1CCCc1ccc(C2CCCCCC2)cc1` were 397 nM and 17200 nM.
Consider `Cc1[nH]nc2c1N=C(c1ccccc1F)c1cc(C(N)=O)ccc1N2`, for which the GI50 was 1160 nM and the TGI came out at 8000 nM.
On the same counts, the results for `CCOC(=O)c1c(C)nc2c(c1N)CC(=O)N2CCc1ccccc1` are 2390 nM and 30000 nM.
Consider `CCCCNC(=O)Oc1ccc(/C(=C(/C)Cc2ccc(OC)cc2)c2ccc(OCCN3CCCC3)cc2)cc1`, for which the GI50 was 1720 nM and the TGI was 3430 nM.
Take `CN(c1ccc(Br)cc1)S(=O)(=O)c1ccc(-c2cnc(C3CC3)o2)cc1`: the GI50 was 41.4 nM.
On to `NCCOc1ccccc1/C=C1\c2ccccc2-c2ccc([N+](=O)[O-])cc21`, for which the GI50 was 1540 nM and the TGI came out at 3110 nM.
Turning to `Cc1cc(N2CCCC2)nc(NCc2cc(Nc3ccnc4cc(Cl)ccc34)ccc2F)n1`, the GI50 is 1140 nM and the TGI was determined as 2610 nM.
